Results: PubChem BioAssay (NCI)
Values joined by “and” are separate entries in the source; they are usually repeats but may differ in a detail not shown here. Equal values may be shown once.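 All cell lines were grown in 96-well plates and treated with compound for 48 hours. Abbreviation: GI50, concentration required for 50% inhibition of growth. TGI marks complete inhibition of growth.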

Experiments:
Assay in all cases: NCI anticancer screen, dose series, 48 h
A498 renal = system: A498 renal
K-562 leukemia = system: K-562 leukemia
M14 melanoma = system: M14 melanoma
MOLT-4 leukemia = system: MOLT-4 leukemia
PC-3 prostate = system: PC-3 prostate
SF-268 CNS = system: SF-268 CNS
SF-295 CNS = system: SF-295 CNS
SK-MEL-5 melanoma = system: SK-MEL-5 melanoma
SW-620 colon = system: SW-620 colon
UACC-257 melanoma = system: UACC-257 melanoma

Compound	GI50 (A498 renal)	TGI (A498 renal)	GI50 (K-562 leukemia)	TGI (K-562 leukemia) [µM]	GI50 (M14 melanoma)	TGI (M14 melanoma) [µM]	GI50 (MOLT-4 leukemia)	TGI (MOLT-4 leukemia) [µM]	GI50 (PC-3 prostate)	TGI (PC-3 prostate) [µM]	GI50 (SF-268 CNS)	TGI (SF-268 CNS) [µM]	GI50 (SF-295 CNS)	TGI (SF-295 CNS)	GI50 (SK-MEL-5 melanoma)	TGI (SK-MEL-5 melanoma)	GI50 (SW-620 colon)	TGI (SW-620 colon) [µM]	GI50 (UACC-257 melanoma)	TGI (UACC-257 melanoma)
Cc1nn(-c2ccccc2)c2c1C1C(=C(c3ccc(Cl)cc3)N2)C(=O)Nc2ccccc21 (configuration not stated)	4010 nM	26.4 µM	3330 nM	46.7	3260 nM	15.2	2850 nM	8.9	2650 nM	13.1	5170 nM	> 100	2490 nM	7.77 µM	1880 nM	4.31 µM	4160 nM	> 100	4330 nM	25.4 µM
C[C@@H](NC(=O)Cc1cc(F)cc(F)c1)C(=O)N[C@@]1(C)N=C(c2ccccc2)c2ccccc2N(C)C1=O	1130 nM	42.6 µM	32600 nM	> 94.1	26000 nM	> 86.6	11700 nM	50.1	25600 nM	> 100	30900 nM	> 100	42800 nM	> 100 µM	35200 nM	> 100 µM	94400 nM	> 100	37500 nM	> 100 µM
N#CC1c2ccccc2-c2ccccc2N1C(=O)c1ccccc1 (configuration not stated)	1320 nM	5.55 µM	1040 nM	–	1470 nM	7.1	1730 nM	> 100	6860 nM	> 100	3030 nM	23.4	2630 nM	> 100 µM	1550 nM	4.84 µM	585 nM	> 100	5320 nM	> 54.5 µM
Cn1c(=O)n(-c2ccc(C(C)(C)C#N)cc2)c2c3cc(-c4cnc5ccccc5c4)ccc3ncc21	< 10 nM and 3.65 nM	0.007 µM and 0.0306 µM	31.5 nM and 7.31 nM and 11.8 nM	> 100	18 nM and 6.56 nM and < 10 nM	–	25 nM and 7.03 nM and 14.8 nM	–	< 10 nM and 6.3 nM	> 100	12.6 nM and 6.57 nM and < 10.9 nM	> 100	< 10 nM and 4.01 nM	0.0278 µM and 0.0203 µM and 0.0181 µM	15.4 nM and 6.46 nM and < 15.2 nM	0.0911 µM and 0.106 µM and 0.0859 µM	16.3 nM and 7.34 nM and < 11.6 nM	> 100	< 10.5 nM and 6.72 nM and < 10 nM	0.0493 µM and 0.436 µM and 0.0457 µM
O=C1c2cccnc2C(=O)c2c1c(C(=O)OCCCN1CCOCC1)c1ccccn21	29.5 nM	2.09 µM	< 12.4 nM	–	< 10 nM	0.0699	135 nM	12.5	14.7 nM	4.94	< 10 nM	10.7	16.7 nM	0.0698 µM	< 11.4 nM	0.0951 µM	< 10 nM	1.75	18.2 nM	0.0758 µM
CCOC(=O)c1[nH]c2c(c1C)-c1[nH]c(=O)c(S(=O)(=O)c3ccccc3)cc1SC2	1680 nM	> 100 µM	23200 nM	> 100	38800 nM	> 100	15700 nM	> 100	17700 nM	> 100	34500 nM	> 100	28100 nM	> 100 µM	37400 nM	> 100 µM	57900 nM	> 100	67100 nM	> 100 µM
CCN(CC)CCC(=O)Nc1ccc(Cn2nnc3c2C(=O)c2nnn(Cc4ccc(NC(=O)CCN(CC)CC)cc4)c2C3=O)cc1	2450 nM	9.49 µM	669 nM	> 37.9	1490 nM	3.43	242 nM	0.628	1980 nM	6.87	338 nM	1.51	1930 nM	5.33 µM	485 nM	1.25 µM	395 nM	1.75	1010 nM	2.79 µM
c1ccc2c(c1)nc(NCCN1CCNCC1)c1c3ccccc3[nH]c21	1560 nM	3.27 µM	93.5 nM	2.07	1240 nM	2.81	98.3 nM	0.887	356 nM	1.97	390 nM	2.01	618 nM	2.21 µM	1270 nM	2.61 µM	250 nM	2.54	1710 nM	3.27 µM
CC1Cc2c(N(C)C)ncnc2N(C)c2ccc(Cl)cc21 (configuration not stated)	3530 nM	19.2 µM	781 nM	> 100	2390 nM	> 100	3520 nM	27.3	3410 nM	81.6	8090 nM	> 100	1980 nM	9.85 µM	3650 nM	13.8 µM	3350 nM	> 100	–	–
Nc1ncnc2occ(-c3ccc(NC(=O)Nc4cc(C(F)(F)F)cc(C(F)(F)F)c4)cc3)c12	144 nM	1.62 µM	925 nM	9.21	3090 nM	6.4	4160 nM	17.8	3070 nM	8.33	2920 nM	6.66	2720 nM	6.53 µM	3520 nM	6.82 µM	4010 nM	7.61	3270 nM	6.69 µM
CN1C(=O)c2cc(Cl)nc3c(NC(=O)c4cccc(Cl)c4)c(Cl)c(NC(=O)c4cccc(Cl)c4)c1c23	3490 nM	12.7 µM	1010 nM	2.57	1470 nM	3.03	2070 nM	5.21	1930 nM	3.99	1830 nM	3.73	2870 nM	11.6 µM	2090 nM	4.36 µM	1780 nM	3.93	1910 nM	3.55 µM
COC(=O)c1cc(Nc2ccc(O)c3c2C(=O)c2c([N+](=O)[O-])ccc(O)c2C3=O)cc(C(=O)OC)c1	20800 nM	> 100 µM	27200 nM	> 100	3150 nM	> 100	6370 nM	> 100	13500 nM	> 100	7970 nM	> 100	21800 nM	> 100 µM	–	–	3300 nM	> 100	3230 nM	> 100 µM
